{
  "source": "patent US20240417410A1",
  "about": "“TRICYCLIC COMPOUNDS FOR THE TREATMENT OF CANCER” (Hoffmann-La Roche Inc., priority 2023, published 2024)",
  "key": {"WT HRAS-BRAF complex": {"target": "WT HRAS-BRAF complex (Homo sapiens (Human), UniProt P01112+P62937)", "sequence (P01112 whole entry, looked up)": "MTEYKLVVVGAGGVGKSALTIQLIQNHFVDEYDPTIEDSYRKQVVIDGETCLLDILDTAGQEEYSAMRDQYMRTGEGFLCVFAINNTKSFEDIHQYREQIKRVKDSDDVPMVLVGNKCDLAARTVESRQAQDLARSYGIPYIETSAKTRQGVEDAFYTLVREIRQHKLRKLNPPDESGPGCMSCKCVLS", "sequence (P62937 whole entry, looked up)": "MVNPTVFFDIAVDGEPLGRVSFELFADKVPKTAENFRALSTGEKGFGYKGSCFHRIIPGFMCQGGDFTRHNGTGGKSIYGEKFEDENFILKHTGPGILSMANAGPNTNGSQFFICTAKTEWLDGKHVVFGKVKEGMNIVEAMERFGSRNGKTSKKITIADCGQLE", "test": "WT HRAS-BRAF with CYPA interaction assay (TR-FRET)", "assay_type": "biochemical", "conditions": "WT HRAS", "method": "In this example, TR-FRET was used to measure the compound or compound-CYPA dependent disruption of the KRAS G12V-BRAF complex to assess inhibition efficacy. The IC50 ratio between WT KRAS/HRAS/NRAS and KRAS G12V mutant was calculated as selective index, which indicated tolerability and safety profile. Disruption of WT KRAS/HRAS/NRAS-BRAF complex by compounds was detected respectively. In assay buffer containing 25 mM HEPES (PH-7.4,4-(2-hydroxyethyl)-1-piperazineethanesulfonic acid, Thermo, 15630080), 0.002% Tween20, 0.1% BSA, 100 mM NaCl, 5 mM MgCl2, 10 μM GMPPNP (Guanosine 5′-[β,γ-imido]triphosphate trisodium salt hydrate, Sigma, G0635), tagless CYPA and GMPPNP loaded 6His-RAS proteins, and GST-BRAF^RBD were mixed in a well of a 384-well assay plate at final concentrations of 50 nM, 6.25 nM and 1 nM, respectively. Compound was present in plate wells as a 16-point 3-fold dilution series starting at a final concentration of 10 μM and incubated for 3 hours. A mixture of MAb Anti-6His-XL665 (Cisbio, 61HISXLB) and Mab anti-GST-TB cryptate (Cisbio, 61GSTTLB) was then added at a final concentration of 6.67 nM and 0.21 nM, respectively, and the plate was incubated for an additional 1.5 hours. TR-FRET signal was read on a PHERstar FSX microplate reader (Ex320 nm, Em 665/615 nm). Compounds that facilitate disruption of the RAS-BRAF complex were identified as those eliciting a decrease in the TR-FRET ratio relative to DMSO control wells."}, "GAK": {"system": "GAK", "test": "Cell proliferation, CTG 3D, 7 d", "assay_type": "cell-based", "conditions": "Homo sapiens", "method": "(§1) On Day-1, cells were plated in 384-well round-bottom ultra-low adhesion plates (cat. Corning 3830, with cell density adjusted according to Table 3. The assay plate was then centrifuged at 1000 rpm for 1 minute to ensure even distribution of cells. The plate was incubated at 37° C. in a 5% CO2 atmosphere (It is worth noting that for SW1271 cell plate, it needs to be incubated in an incubator without additional CO2).\n(§2) On Day 0, Example 24 or A122 was added to each well using a Tecan HP D300E dispenser, with a 3-fold dilution across 9 doses. The final concentration of DMSO was normalized to 0.2%. The assay plate was then centrifuged at 1000 rpm for 1 minute and incubated for 7 days.\n(§3) On Day 7, CellTiter-Glo (CTG) 3D reagent (Promega G9683) was dispensed into each well of a 384-well plate using a multi-drop dispenser (Thermo Scientific 66413). A liquid handling automation workstation (Bravo with a 384-well head) was used to mix the CTG reagents. Plates were left on a shaker for 30 minutes at 450 rpm, shielded from light.\n(§4) For data analysis, the XL-fit software (Supplier: ID Business Solutions Ltd., Software version: XL fit 5.0) was utilized. The percentage of inhibition was calculated using the formula: Inhibition %=(Max-Sample value)/(Max-Min)×100. Curve fitting was performed as follows: For complete dose-response curves, the relative IC50 was reported from the fit. For incomplete curves, if minimal inhibition was greater than 50%, an IC50 less than the lowest compound concentration was reported. If minimal inhibition was between 20% and 50%, the bottom was locked at 0% and the IC50 was reported. If maximal inhibition was less than 50%, an IC50 greater than the highest compound concentration was reported."}, "GP2d": {"system": "GP2d", "test": "Cell proliferation, CTG 3D, 7 d", "assay_type": "cell-based", "conditions": "Homo sapiens, KRAS (G12D)", "method": "as §1, §2, §3, §4"}, "KLE": {"system": "KLE", "test": "Cell proliferation, CTG 3D, 7 d", "assay_type": "cell-based", "conditions": "Homo sapiens, KRAS (WT ampl)", "method": "as §1, §2, §3, §4"}, "KMS-28BM": {"system": "KMS-28BM", "test": "Cell proliferation, CTG 3D, 7 d", "assay_type": "cell-based", "conditions": "Homo sapiens", "method": "as §1, §2, §3, §4"}, "KNS-62": {"system": "KNS-62", "test": "Cell proliferation, CTG 3D, 7 d", "assay_type": "cell-based", "conditions": "Homo sapiens", "method": "as §1, §2, §3, §4"}, "LCLC-97TM1": {"system": "LCLC-97TM1", "test": "Cell proliferation, CTG 3D, 7 d", "assay_type": "cell-based", "conditions": "Homo sapiens; LCLC-97TM1, KRAS (G12V)", "method": "as §1, §2, §3, §4"}, "LS1034": {"system": "LS1034", "test": "Cell proliferation, CTG 3D, 7 d", "assay_type": "cell-based", "conditions": "Homo sapiens, LS-1034", "method": "as §1, §2, §3, §4"}, "MDA-MB-134-VI": {"system": "MDA-MB-134-VI", "test": "Cell proliferation, CTG 3D, 7 d", "assay_type": "cell-based", "conditions": "Homo sapiens", "method": "as §1, §2, §3, §4"}, "MOLP8": {"system": "MOLP8", "test": "Cell proliferation, CTG 3D, 7 d", "assay_type": "cell-based", "conditions": "Homo sapiens, MOLP-8", "method": "as §1, §2, §3, §4"}, "NCI-H2122": {"system": "NCI-H2122", "test": "Cell proliferation, CTG 3D, 7 d", "assay_type": "cell-based", "conditions": "Homo sapiens; NCI-H2122, KRAS (G12C)", "method": "as §1, §2, §3, §4"}, "NCI-H23": {"system": "NCI-H23", "test": "Cell proliferation, CTG 3D, 7 d", "assay_type": "cell-based", "conditions": "Homo sapiens; NCI-H23, KRAS (G12C)", "method": "as §1, §2, §3, §4"}, "NCI-H838": {"system": "NCI-H838", "test": "Cell proliferation, CTG 3D, 7 d", "assay_type": "cell-based", "conditions": "Homo sapiens; NCI-H838, KRAS (WT ampl)", "method": "as §1, §2, §3, §4"}, "NOMO-1": {"system": "NOMO-1", "test": "Cell proliferation, CTG 3D, 7 d", "assay_type": "cell-based", "conditions": "Homo sapiens", "method": "as §1, §2, §3, §4"}, "RKN": {"system": "RKN", "test": "Cell proliferation, CTG 3D, 7 d", "assay_type": "cell-based", "conditions": "Homo sapiens, KRAS (G12V)", "method": "as §1, §2, §3, §4"}, "RPMI8226": {"system": "RPMI8226", "test": "Cell proliferation, CTG 3D, 7 d", "assay_type": "cell-based", "conditions": "Homo sapiens, RPMI-8226", "method": "as §1, §2, §3, §4"}, "SK-N-AS": {"system": "SK-N-AS", "test": "Cell proliferation, CTG 3D, 7 d", "assay_type": "cell-based", "conditions": "Homo sapiens", "method": "as §1, §2, §3, §4"}, "SW 900": {"system": "SW 900", "test": "Cell proliferation, CTG 3D, 7 d", "assay_type": "cell-based", "conditions": "Homo sapiens, SW900; SW 900, KRAS (G12V)", "method": "as §1, §2, §3, §4"}, "TF-1": {"system": "TF-1", "test": "Cell proliferation, CTG 3D, 7 d", "assay_type": "cell-based", "conditions": "Homo sapiens", "method": "as §1, §2, §3, §4"}},
  "note": "pIC50: −log10 of the molar value. Where two headings read alike, the source gives them in different places.",
  "data": [
    {"smiles": "CO[C@@H](C)c1ncc(N2CCN(C)CC2)cc1-c1c2c3cc(cc4c3n1CCC4)-c1csc(n1)C[C@H](NC(=O)[C@H]1[C@H](C)[C@@H]1C)C(=O)N1CCC[C@H](N1)C(=O)OCC(C)(C)C2", "note": "(atropisomer, axis not shown; (M)) [Example 24, (1r,2R,3S)-N-[(7S,13S)-(20M)-20-[2-[(1S)-1-methoxyethyl]-5-(4-methylpiperazin-1-yl)-3-pyridyl]-17,17-dimethyl-8,14-dioxo-15-oxa-4-thia-9,21,30,31-tetrazahexacyclo[23.3.1.1^2,5.1^9,13.0^19,27.0^21,26]hentriaconta-1 (28),2,5 (31), 19,25 (29),26-hexaen-7-yl]-2,3-dimethyl-cyclopropanecarboxamide]", "values": [
      {"measurement": "pIC50", "setting": "WT HRAS-BRAF complex", "result": 7.42},
      {"measurement": "pIC50", "setting": "GAK; GAK, NRAS (p.Q61L), read-out: IC50", "result": 8.00},
      {"measurement": "pIC50", "setting": "GP2d", "result": 9.20},
      {"measurement": "pIC50", "setting": "KLE", "result": 7.00},
      {"measurement": "pIC50", "setting": "KMS-28BM; KRAS (G12A), read-out: IC50", "result": 9.20},
      {"measurement": "pIC50", "setting": "KNS-62; KNS-62, HRAS (p.Q61L), read-out: IC50", "result": 8.59},
      {"measurement": "pIC50", "setting": "LCLC-97TM1", "result": 10.04},
      {"measurement": "pIC50", "setting": "LS1034; LS1034, KRAS (A146T), read-out: IC50", "result": 7.92},
      {"measurement": "pIC50", "setting": "MDA-MB-134-VI; KRAS (G12R), read-out: IC50", "result": 8.82},
      {"measurement": "pIC50", "setting": "MOLP8; MOLP8, NRAS (p.Q61L), read-out: IC50", "result": 7.96},
      {"measurement": "pIC50", "setting": "NCI-H2122", "result": 9.41},
      {"measurement": "pIC50", "setting": "NCI-H23", "result": 9.77},
      {"measurement": "pIC50", "setting": "NCI-H838", "result": 7.00},
      {"measurement": "pIC50", "setting": "NOMO-1; NOMO-1, KRAS (G13D), read-out: IC50", "result": 9.33},
      {"measurement": "pIC50", "setting": "RKN", "result": 10.35},
      {"measurement": "pIC50", "setting": "RPMI8226; RPMI8226, KRAS (G12A), read-out: IC50", "result": 9.42},
      {"measurement": "pIC50", "setting": "SK-N-AS; NRAS (p.Q61K), read-out: IC50", "result": 9.33},
      {"measurement": "pIC50", "setting": "SW 900", "result": 9.55},
      {"measurement": "pIC50", "setting": "TF-1; TF-1, NRAS (p.Q61P), read-out: IC50", "result": 6.89}
    ]},
    {"smiles": "CCn1c(-c2cc(N3CCN(C)CC3)cnc2[C@H](C)OC)c2c3cc(ccc31)-c1csc(n1)C[C@H](NC(=O)[C@H]1C[C@@H]1C)C(=O)N1CCC[C@H](N1)C(=O)OCC(C)(C)O2", "note": "[Example A122, reference compound]", "values": [
      {"measurement": "pIC50", "setting": "WT HRAS-BRAF complex", "result": 8.00},
      {"measurement": "pIC50", "setting": "GAK", "result": 7.72},
      {"measurement": "pIC50", "setting": "GP2d", "result": 9.26},
      {"measurement": "pIC50", "setting": "KLE", "result": 7.00},
      {"measurement": "pIC50", "setting": "KMS-28BM", "result": 9.06},
      {"measurement": "pIC50", "setting": "KNS-62; KNS-62", "result": 8.19},
      {"measurement": "pIC50", "setting": "LCLC-97TM1", "result": 9.77},
      {"measurement": "pIC50", "setting": "LS1034", "result": 8.14},
      {"measurement": "pIC50", "setting": "MDA-MB-134-VI", "result": 8.59},
      {"measurement": "pIC50", "setting": "MOLP8", "result": 7.66},
      {"measurement": "pIC50", "setting": "NCI-H2122", "result": 9.21},
      {"measurement": "pIC50", "setting": "NCI-H23", "result": 9.48},
      {"measurement": "pIC50", "setting": "NCI-H838", "result": 7.00},
      {"measurement": "pIC50", "setting": "NOMO-1; NOMO-1", "result": 9.07},
      {"measurement": "pIC50", "setting": "RKN", "result": 10.18},
      {"measurement": "pIC50", "setting": "RPMI8226", "result": 9.28},
      {"measurement": "pIC50", "setting": "SK-N-AS", "result": 8.72},
      {"measurement": "pIC50", "setting": "SW 900", "result": 9.64},
      {"measurement": "pIC50", "setting": "TF-1; TF-1", "result": 7.00}
    ]}
  ]
}
